{"source": "patent US11684599B2", "about": "“Very-long-chain polyunsaturated fatty acids, elovanoid hydroxylated derivatives, and methods of use” (Board of Supervisors of Louisiana State University and …, priority 2017, dated 2023)", "key": {"ARPE-19 cells under UOS": {"system": "ARPE-19 cells under UOS", "assay": "Western blot of pro-survival and pro-apoptotic proteins in RPE cells under UOS", "assay_type": "cell-based, human", "conditions": "for Prohibitin (type-1) expression: sodium salts and methyl ester forms, concentration-dependent 100-200 nM; for pro-apoptotic Bax / pro-apoptotic Bid / pro-apoptotic Bim: sodium salts or methyl esters", "method": "ARPE19 cells at 75-80% confluence (72 h growth in DMEM/F12+10% FBS) in 6-well plates were serum-starved for 8 h before exposure. The serum-starved cells were treated with TNF-α (Sigma-Aldrich, St. Louis, Mo.) (10 ng/ml) and H2O2 (600 μM) to induce oxidative stress and challenged with increasing concentrations (50-500 nM) of VLC-PUFA (C32:6n3 and C34:6n3) simultaneously with oxidative stress for 16 h (apoptosis) and 6 h (Western-blot) before detection of apoptosis and harvesting for protein analysis. In some experiments, DHA at a concentration of 100 nM and 15-LOX-1 inhibitor PD146176 at a concentration of 1 μM was added to treat the RPE cells under stress. Cell extracts were made and protein concentrations adjusted by Bio-Rad (Hercules, Calif.) protein reagent and used for Western blot analysis.\nBcl-2 family proteins, SIRT1 and Proinhibitin (type-1), and Iduna proteins were analyze by Western blot analysis. In brief, 20-25 μg equivalents of each cell extracts were subject to electrophoresis on a 4-12% gel (Promega) at 125 V for 2 h. The proteins were transferred to nitrocellulose membrane by I-blot transfer apparatus. The membranes were subjected to treatment with primary antibodies specific for Bcl-2, Bcl-xL, Bax, Bid, Bim, SIRT1 and Prohibitin (type-1) (Santa Cruz Biotechnology) and Iduna antibody (Neuro-Mab Lab, UCLA, Los Angeles, Calif.) overnight at 4° C. and probed for 45 mins with secondary antibody, goat anti-mouse Ig:horseradish peroxidase, and horseradish peroxidase-conjugated anti-biotin antibody, and then proteins were evaluated by using an ECL kit (Amersham)."}, "[1]": {"system": "cerebral-cortical mixed neuronal cells and hippocampal neurons", "assay": "NMDA excitotoxicity of neurons in culture, cell viability", "assay_type": "cell-based, rat", "from_the_text": "Primary cultures of cortical and hippocampal neurons were harvested from 18-day-old embryos (E18) taken from timed-pregnant, two-month-old Sprague-Dawley (SD) rats (Charles River Lab., Wilmington, Mass.). Briefly, timed-pregnant SD rats were euthanized and embryos were collected in sterile conditions. Embryonic brains were dissected out by forceps on ice and placed in a petri dish containing ice-cold Hank's Balanced Salt Solution (HBSS) (GIBCO). Meninges were removed under a dissecting microscope and cortical tissues were chopped into small pieces with micro-spring scissors. These tissues were transferred to 15 ml tubes containing trypsin-EDTA (0.025% in HBSS) and DNase I. The tubes were incubated in 37° C. chamber for 15 mins and were agitated every 5 mins. After stopping the trypsinization with 5 ml 10% FBS, these tissues were triturated 15 times with a fire polished Pasteur pipet. Cell clumps were left to settle for 2 mins and the supernatant was transferred to a 15 ml Eppendorf tube. The supernatant was filtered through a 70 μm pore-sized filter (Corning cell strainer) and centrifuged for 5 mins at 1000 rpm. The cells were then resuspended in Neurobasal medium (GIBCO) containing 2% B27 (GIBCO) and 2% N2 (GIBCO) supplements, along with 0.5 mM glutamine, 50 U/ml penicillin/streptomycin.\nCells were counted using a Neubauer hemocytometer. 1×10^6 cells were seeded on poly-D-lysine-coated 12 well cell culture dish (CORNING) and cultured in incubator (37° C., 5% CO2). Culture medium was first replaced after 24 h, then half of the medium was replaced with fresh medium every three days. As a result, approximately, 90% purity of neurons was obtained as determined by class-III-β tubulin, GFAP and Hoechst 33258 staining. Cells were maintained in culture for about 2 weeks until they were exposed to uncompensated oxidative stress, OGD, or NMDA excitotoxicity.\nAfter 90 mins of OGD exposure, cells were returned to the original medium (Neurobasal medium (GIBCO) containing 2% B27 (GIBCO) and 2% N2 (GIBCO) supplements, along with 0.5 mM glutamine, 50 U/ml penicillin/streptomycin) and placed in a normoxic chamber (37° C., 5% CO2) for 2 h. Then the medium was changed with medium containing either ELV-N32 or ELV-N34 [500 nM] and maintained in a normoxic chamber (37° C., 5% CO2) for 12 h, after which cells were sampled and assayed for cell viability using different methods as previously described (25-28). Cerebral cortical mixed neuronal cells or hippocampal cells in culture were exposed to either NMDA or uncompensated oxidative stress (UOS) for 12 h by addition of either NMDA (25 μM, 50 μM, or 100 μM) concentration or by the addition of TNFα (10 ng/mL) and H2O2 (50 μM, 100 μM, or 200 μM). Cell viability and neuroprotection in the presence of ELV-N32, ELV-N34, 32:6, or 34:6 were assayed after 12 h.\nCells were washed with 1× Dulbecco's Phosphate Buffered Saline (DPBS) containing no calcium or magnesium (GIBCO) and fixed for 10 mins using ice-cold 4% paraformaldehyde (PFA) followed by 15 mins incubation in 100% methanol. Cells were washed with 1× Phosphate Buffered Saline (PBS) pH 7.4 (GIBCO) and incubated in PBS containing 20 μM Hoechst 33258 (Molecular Probes) for 20 mins. Cells were then washed 3 times with 1×PBS and stored in 1×PBS at 4° C. until they were imaged for microscopy.\nOne 4×4 tile mosaic was acquired from the center of each well using a Zeiss 510 Meta laser confocal microscope and LSM 510 Meta software. Images were imported into image analysis software ImageJ (National Institutes of Health, Bethesda, Md.) and batch processed using custom macros. An Otsu auto threshold was applied to each image of Hoechst-stained nuclei, and the area of each detected object was recorded. Objects with areas <10 μm^2 were excluded from analysis. To estimate percentage non-pyknotic nuclei, a size cutoff value was chosen above which objects were assumed to be non-pyknotic. […]"}, "primary human RPE cells": {"system": "primary human RPE cells", "assay": "UOS-induced cell death in primary human RPE cells (Hoechst staining)", "assay_type": "cell-based", "conditions": "NPD1 200 nM, 16 h; H2O2 (800 μM) alone 50% cell death", "method": "Primary human retinal pigment epithelia (RPE) cells, prepared from donor eyes without eye pathology, were plated and transformed after passage eight. Cells were cultured in T75 flasks in MEM medium containing 10% FBS, 5% NCS, MEM-NEAA (ThermoFisher Scientific, Waltham, Mass.), 1× penicillin/streptomycin and 10 ng/ml FGF at 37° C. 5% CO2, 99% relative humidity for 24-48 h followed by a 24-h incubation with 10 μM free 32:6 and 34:6 fatty acid mixture.\nFor cell viability assay experiments hRPE cells were treated concomitantly with NPD1 (200 nM), 32-6, 34-6 (3 μM each) fatty acids or both 32-6 and 34-6 simultaneously. The hRPE medium was supplemented with 3 μM of 32-6 and 34-6 for the entire duration of the experiment. 15 lox-1 inhibitor (10 μM) was added to the cells 1 hour prior the OS induction and kept throughout the experiment. Cells were fixed with 4% PFA and stained with Hoescht.\nTo assess cell death, hRPE and ARPE-19 cells were fixed with methanol for 15 mins, washed with 1×PBS then loaded with 2 μM Hoechst dissolved in a Locke's solution (Promega) and incubated for another 15 mins before imaging. Cells were then viewed by using a Zeiss LSM 510 confocal microscope under UV fluorescence. Images were recorded and cell apoptosis was assessed by using an automated unbiased method."}, "ARPE-19 cells": {"system": "ARPE-19 cells", "assay": "UOS-induced apoptosis in ARPE-19 cells (Hoechst-positive pyknotic cells)", "assay_type": "cell-based, human", "conditions": "1 μM, RPE cells undergoing UOS", "method": "FIGS. 6A and 6B depicts immunostaining of primary human RPE cells using specific markers ZO-1 (Zona occludens-1), RPE65, MITF (Micro-ophtalmia-associated Transcription Factor) and β-catenin, as well as light microscopy depicting primary human RPE cell morphology at different passages in culture. ARPE-19 cells were grown and maintained in T-75 mM flasks in DMEM F-12 medium containing 10% FBS and incubated at 37° C. with a constant supply of 5% CO2. Cells at 75-80% confluence (72 h growth in DMEM/F12+10% FBS) in 6-well plates were serum-starved for 8 h before exposure. The serum-starved cells were treated with TNF-α (Sigma-Aldrich, St. Louis, Mo.) (10 ng/ml) and H2O2 (600 μM) to induce oxidative stress and challenged with increasing concentrations (50-500 nM) of VLC-PUFA (C32:6n3 and C34:6n3) simultaneously with oxidative stress for 16 h (apoptosis) and 6 h (Western-blot) before detection of apoptosis and harvesting for protein analysis. In some experiments, DHA at a concentration of 100 nM and 15-LOX-1 inhibitor PD146176 at a concentration of 1 μM was added to treat the RPE cells under stress. Cell extracts were made and protein concentrations adjusted by Bio-Rad (Hercules, Calif.) protein reagent and used for Western blot analysis. To assess cell death, hRPE and ARPE-19 cells were fixed with methanol for 15 mins, washed with 1×PBS then loaded with 2 μM Hoechst dissolved in a Locke's solution (Promega) and incubated for another 15 mins before imaging. Cells were then viewed by using a Zeiss LSM 510 confocal microscope under UV fluorescence. Images were recorded and cell apoptosis was assessed by using an automated unbiased method."}}, "data": [{"molecule": "CC/C=C\\C[C@H](O)\\C=C/C=C/C=C/[C@H](O)C/C=C\\C/C=C\\CCCCCCCCCCCCC(=O)O", "note": "[ELV-N32, (14Z,17Z,20R,21E,23E,25Z,27S,29Z)-20,27-dihydroxydo-triaconta-14,17,21,23,25,29-hexaenoic acid]", "values": [{"measurement": "Prohibitin (type-1) expression", "setting": "ARPE-19 cells under UOS", "value": "upregulated"}, {"measurement": "pro-apoptotic Bax", "setting": "ARPE-19 cells under UOS", "value": "decreased"}, {"measurement": "pro-apoptotic Bid", "setting": "ARPE-19 cells under UOS", "value": "decreased"}, {"measurement": "pro-apoptotic Bim", "setting": "ARPE-19 cells under UOS", "value": "decreased"}]}, {"molecule": "CC/C=C\\C[C@H](O)\\C=C/C=C/C=C/[C@H](O)C/C=C\\C/C=C\\CCCCCCCCCCCCCCC(=O)O", "note": "[ELV-N34, (16Z,19Z,22R,23E,25E,27Z,29S,31Z)-22,29-dihydroxytetra-triaconta-16,19,23,25,27,31-hexaenoic acid]", "values": [{"measurement": "Prohibitin (type-1) expression", "setting": "ARPE-19 cells under UOS", "value": "upregulated"}, {"measurement": "pro-apoptotic Bax", "setting": "ARPE-19 cells under UOS", "value": "decreased"}, {"measurement": "pro-apoptotic Bid", "setting": "ARPE-19 cells under UOS", "value": "decreased"}, {"measurement": "pro-apoptotic Bim", "setting": "ARPE-19 cells under UOS", "value": "decreased"}, {"measurement": "NMDA-induced neuronal death", "setting": "[1]; ELV (Na or Me) 200 nM or 500 nM added along with NMDA 25, 50 or 100 μM, 12 h", "value": "compensated for"}]}, {"molecule": "CC/C=C\\C[C@H](O)\\C=C/C=C/C=C/[C@H](O)C/C=C\\C/C=C\\CCC(=O)O", "note": "[NPD1, 10R,17S-dihydroxy-docosa-4Z,7Z,11E,13E,15Z,19Z-hexaenoic acid]", "values": [{"measurement": "apoptosis", "setting": "primary human RPE cells", "value": 11, "unit": "%"}]}, {"molecule": "c1ccc2c(c1)SCc1c-2[nH]c2ccccc12", "note": "[PD146176, reference compound]", "values": [{"measurement": "effect of 15-LOX-1 inhibitor on ELV-mediated inhibition of apoptosis", "setting": "ARPE-19 cells", "value": "compensate for ELV-mediated inhibition of apoptosis"}, {"measurement": "effect of 15-LOX-1 inhibitor on ELV-induced upregulation", "setting": "ARPE-19 cells under UOS; 1 μM, ARPE-19 cells undergoing UOS", "value": "blocked these effects"}]}, {"molecule": "MK801 maleate [reference compound]", "values": [{"measurement": "NMDA excitotoxicity", "setting": "[1]; 10 μM", "value": "overcome"}]}]}
